According to patent US20210386367A1, “DEVICES AND SYSTEMS FOR GASTROINTESTINAL MICROBIOME DETECTION AND MANIPULATION” (Progenity, Inc., priority 2018, published 2021):
Values after ≈ are worked out from the molar mass of the structure shown.

Columns and labels:
[1] = test system: E. coli spontaneous mutants; test: Broth microdilution MIC of spontaneous mutants; type: cell-based, Escherichia coli
Description: (§1) Select isolates were subcultured onto agar containing drug at the selection concentration, were identified by MALDI, and were frozen for broth microdilution MIC testing as described below.
(§2) To determine whether colonies growing on drug selection plates had elevated MIC values to the selecting antibiotic, susceptibility testing by broth microdilution was conducted on isolated mutants following methodology recommended by CLSI (1), (2), and (3) “Performance Standards for Antimicrobial Susceptibility Testing; Twenty-Eighth Informational Supplement.,” CLSI document M100-S28, 2018.
(§3) All wells in columns 2 through 12 of a standard 96-well microdilution plate (Costar 3795) were filled with 150 μL of the appropriate diluent. Then, 300 μL of the test agents were added to the wells of column 1 of the plates at […] the highest final concentration to be tested. Serial two-fold dilutions were made across the rows through column 11 using the Biomek 2000. The wells of column 12 contained no drug and served as the growth control wells. This plate served as the “mother plate” from which selected MIC assay plates or “daughter plates” were made.
(§4) 2 μL of drug solution from each well of a mother plate was added to each corresponding well of the daughter plate in a single step. A standardized inoculum of each aerobic test organism was prepared per CLSI methods to equal a 0.5 McFarland standard, followed by a dilution of 1:20 in MHB II. The plates were then inoculated with 10 μL of the diluted inoculum using the Biomek 2000 from low to high drug concentration, resulting in a final concentration of approximately 5×10^5 CFU/mL. An un-inoculated plate was incubated for the purpose of assessing solubility of the drug in the test media.
(§5) The plates for the aerobic tests were stacked 3-4 high, covered with a sterile lid on the top plate, and incubated aerobically at 35° C. for 18-20 hr. The MIC was recorded as the lowest concentration of drug that inhibited visible growth of the organism.

[2] = test system: Streptococcus spp. spontaneous mutants; test: organism not typed; type: cell-based
Description: as §1, §2, §3, §4, §5

[3] = test system: Bacteroides spp. spontaneous mutants; test: Broth microdilution MIC of spontaneous mutants; type: cell-based
Description: as §1, §2, §3
Daughter plates for anaerobic organisms were transferred to a Bactron II anaerobic chamber (Sheldon Manufacturing Inc., Cornelius, Oreg.) to reduce for 1 hour prior to inoculation. The inoculum for each organism was prepared in the anaerobic chamber and dispensed into sterile disposable reservoirs. Inoculation was completed using a multichannel pipette to transfer 10 μL of the inoculum into each well of the daughter plate. This yielded a final cell concentration in the daughter plates of approximately 1×10^6 CFU/mL.

For `COc1c(N2C[C@@H]3CCCN[C@@H]3C2)c(F)cc2c(=O)c(C(=O)O)cn(C3CC3)c12` [MOX], the MIC ([1]; E. coli ATCC 25922, selected on rifaximin 4X MIC, Colony A) was 0.015 µg/mL, the MIC ([1]; E. coli ATCC 25922, selected on rifaximin 4X MIC, Colony B) was 0.015 µg/mL and the MIC ([1]; E. coli ATCC 25922, selected on rifaximin 8X MIC, Colony A) was 0.015 µg/mL. For the same molecule, the MIC ([1]; E. coli ATCC 25922, selected on rifaximin 8X MIC, Colony B) was 0.015 µg/mL, the MIC ([1]; E. coli ATCC 25922 Parent (Table 52)) was 0.03 µg/mL and the MIC ([1]; E. coli ATCC 35218, selected on rifaximin 4X MIC, Colony A) was 0.03 µg/mL. The MIC ([1]; E. coli ATCC 35218, selected on rifaximin 4X MIC, Colony B) was 0.03 µg/mL, the MIC ([1]; E. coli ATCC 35218, selected on rifaximin 8X MIC, Colony A) was 0.03 µg/mL and the MIC ([1]; E. coli ATCC 35218, selected on rifaximin 8X MIC, Colony B) was 0.03 µg/mL. It also gave an MIC ([1]; E. coli ATCC 35218 Parent (Table 52)) of 0.03 µg/mL, an MIC ([1]; E. coli MMX 1312, selected on ceftriaxone 4X MIC, Colony A) of 0.03 µg/mL and an MIC ([1]; E. coli MMX 1312, selected on ceftriaxone 4X MIC, Colony B) of 0.06 µg/mL. It also gave an MIC ([1]; E. coli MMX 1312, selected on ceftriaxone 4X MIC, Colony C) of 0.03 µg/mL, an MIC ([1]; E. coli MMX 1312, selected on ceftriaxone 8X MIC, Colony A) of 0.03 µg/mL and an MIC ([1]; E. coli MMX 1312, selected on ceftriaxone 8X MIC, Colony B) of 0.03 µg/mL. For the same molecule, the MIC ([1]; E. coli MMX 1312, selected on ceftriaxone 8X MIC, Colony C) was 0.03 µg/mL, the MIC ([1]; E. coli MMX 1312, selected on rifaximin 4X MIC, Colony A) was 0.03 µg/mL and the MIC ([1]; E. coli MMX 1312, selected on rifaximin 4X MIC, Colony B) was 0.03 µg/mL. The MIC ([1]; E. coli MMX 1312, selected on rifaximin 8X MIC, Colony A) was 0.03 µg/mL, the MIC ([1]; E. coli MMX 1312, selected on rifaximin 8X MIC, Colony B) was 0.03 µg/mL and the MIC ([1]; E. coli MMX 1312 Parent) was 0.03 µg/mL. For the same molecule, the MIC ([1]; E. coli MMX 1312 Parent (Table 49)) was 0.03 µg/mL, the MIC ([1]; E. coli MMX 1312 Parent (Table 52)) was 0.03 µg/mL and the MIC ([1]; E. coli MMX 1312 mutant selected on meropenem 4X MIC, colony A) was 0.03 µg/mL. It also gave an MIC ([1]; E. coli MMX 1312 mutant selected on meropenem 4X MIC, colony B) of 0.03 µg/mL, an MIC ([1]; E. coli MMX 1312 mutant selected on meropenem 4X MIC, colony C) of 0.03 µg/mL and an MIC ([1]; E. coli MMX 1312 mutant selected on meropenem 8X MIC, colony A) of 0.03 µg/mL. The MIC ([1]; E. coli MMX 1312 mutant selected on meropenem 8X MIC, colony B) was 0.03 µg/mL, the MIC ([1]; E. coli MMX 1312 mutant selected on meropenem 8X MIC, colony C) was 0.03 µg/mL and the MIC ([2]; S. agaloctiae ATCC 13813, selected on rifaximin 4X MIC, Colony A) was 0.06 µg/mL (≈ 0.149 µM). It also gave an MIC ([2]; S. agaloctiae ATCC 13813, selected on rifaximin 4X MIC, Colony B) of 0.06 µg/mL (≈ 0.149 µM), an MIC ([2]; S. agaloctiae ATCC 13813, selected on rifaximin 8X MIC, Colony A) of 0.06 µg/mL (≈ 0.149 µM) and an MIC ([2]; S. agaloctiae ATCC 13813, selected on rifaximin 8X MIC, Colony B) of 0.03 µg/mL (≈ 0.0747 µM). It also gave an MIC ([2]; S. agaloctiae ATCC 13813 Parent) of 0.06 µg/mL (≈ 0.149 µM), an MIC ([2]; S. pneumoniae ATCC 49619, selected on rifaximin 4X MIC, Colony A) of 0.06 µg/mL (≈ 0.149 µM) and an MIC ([2]; S. pneumoniae ATCC 49619, selected on rifaximin 4X MIC, Colony B) of 0.06 µg/mL (≈ 0.149 µM). It also gave an MIC ([2]; S. pneumoniae ATCC 49619, selected on rifaximin 8X MIC, Colony A) of 0.06 µg/mL (≈ 0.149 µM), an MIC ([2]; S. pneumoniae ATCC 49619, selected on rifaximin 8X MIC, Colony B) of 0.06 µg/mL (≈ 0.149 µM) and an MIC ([2]; S. pneumoniae ATCC 49619 Parent) of 0.12 µg/mL (≈ 0.299 µM). For the same molecule, the MIC ([2]; S. pyogenes ATCC 49399, selected on rifaximin 4X MIC, Colony A) was 0.06 µg/mL (≈ 0.149 µM), the MIC ([2]; S. pyogenes ATCC 49399, selected on rifaximin 4X MIC, Colony B) was 0.06 µg/mL (≈ 0.149 µM) and the MIC ([2]; S. pyogenes ATCC 49399, selected on rifaximin 8X MIC, Colony A) was 0.06 µg/mL (≈ 0.149 µM). For the same molecule, the MIC ([2]; S. pyogenes ATCC 49399, selected on rifaximin 8X MIC, Colony B) was 0.06 µg/mL (≈ 0.149 µM), the MIC ([2]; S. pyogenes ATCC 49399 Parent) was 0.06 µg/mL (≈ 0.149 µM) and the MIC ([3]; B. fragilis ATCC 25285, selected on rifaximin 4X MIC, Colony A) was 0.06 µg/mL. The MIC ([3]; B. fragilis ATCC 25285, selected on rifaximin 4X MIC, Colony B) was 0.12 µg/mL, the MIC ([3]; B. fragilis ATCC 25285, selected on rifaximin 8X MIC, Colony A) was 0.12 µg/mL and the MIC ([3]; B. fragilis ATCC 25285, selected on rifaximin 8X MIC, Colony B) was 0.12 µg/mL. The MIC ([3]; B. fragilis ATCC 25285 Parent) was 0.06 µg/mL, the MIC ([3]; B. ovatus MMX 3503, selected on rifaximin 4X MIC, Colony A) was 2 µg/mL and the MIC ([3]; B. ovatus MMX 3503, selected on rifaximin 4X MIC, Colony B) was 0.5 µg/mL. It also gave an MIC ([3]; B. ovatus MMX 3503, selected on rifaximin 8X MIC, Colony A) of 1 µg/mL, an MIC ([3]; B. ovatus MMX 3503, selected on rifaximin 8X MIC, Colony B) of 1 µg/mL and an MIC ([3]; B. ovatus MMX 3503 Parent) of 1 µg/mL. The MIC ([3]; B. vulgatus ATCC 8482, selected on ceftriaxone 4X MIC, Colony A) was 0.5 µg/mL, the MIC ([3]; B. vulgatus ATCC 8482, selected on ceftriaxone 4X MIC, Colony B) was 0.5 µg/mL and the MIC ([3]; B. vulgatus ATCC 8482, selected on rifaximin 4X MIC, Colony A) was 0.5 µg/mL. The MIC ([3]; B. vulgatus ATCC 8482, selected on rifaximin 4X MIC, Colony B) was 0.25 µg/mL, the MIC ([3]; B. vulgatus ATCC 8482, selected on rifaximin 8X MIC, Colony A) was 0.5 µg/mL and the MIC ([3]; B. vulgatus ATCC 8482, selected on rifaximin 8X MIC, Colony B) was 0.5 µg/mL. For the same molecule, the MIC ([3]; B. vulgatus ATCC 8482 Parent (Table 50)) was 0.5 µg/mL and the MIC ([3]; B. vulgatus ATCC 8482 Parent (Table 54)) was 0.5 µg/mL.
